Biological target: Human Factor D (Homo sapiens (Human), UniProt P00746)
Assay: Human Factor D Assay
Assay type: biochemical
Settings: Table 1; Factor D purified from human serum, 80 nM, substrate Z-L-Lys-SBzl; read-out: IC50
Experimental: Example 12. Human Factor D Assay
Human Factor D (purified from human serum, Complement Technology, Inc.) at 80 nM final concentration is incubated with test compound at various concentrations for 5 minutes at room temperature in 50 mM Tris, 1M NaCl, pH 7.5. A synthetic substrate Z-L-Lys-SBzl and DTNB (Ellman's reagent) are added to final concentrations of 100 μM each. Absorbance at 405 nm (A405) is recorded at 30 second intervals for 30 minutes using a microplate spectrophotometer. IC50 values are calculated by nonlinear regression of complement Factor D reaction rates as a function of test compound concentration.

Sequence of Human Factor D (P00746 26-253): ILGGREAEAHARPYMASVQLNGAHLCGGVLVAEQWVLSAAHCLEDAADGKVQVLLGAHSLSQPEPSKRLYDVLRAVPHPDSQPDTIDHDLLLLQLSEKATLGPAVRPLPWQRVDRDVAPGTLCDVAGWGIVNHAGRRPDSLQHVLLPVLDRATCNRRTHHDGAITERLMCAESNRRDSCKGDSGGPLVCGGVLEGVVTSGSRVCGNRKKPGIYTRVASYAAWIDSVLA

Question: Which IC50 does the source give for `CC(=O)c1cn(CC(=O)N2C[C@H](F)C[C@H]2C(=O)NCc2cccc(Cl)c2F)c2cc(NS(=O)(=O)C(F)(F)F)ccc12` [Compound 2, (2S,4R)-1-(2-(3-acetyl-6-(trifluoromethyl-sulfonamido)-1H-indol-1-yl)acetyl)-N-(3-chloro-2-fluorobenzyl)-4-fluoropyrrolidine-2-carboxamide] here?
Answer: < 1000 nM

Question: How did the IC50 turn out when `CC(=O)c1cn(C(=O)CN2C[C@H](F)C[C@H]2C(=O)Nc2nnc(-c3ccc(Cl)c(Cl)c3)s2)c2ccc(Nc3cncnc3)cc12` [Compound 39, (2S,4R)-1-(2-(3-acetyl-5-(pyrimidin-5-ylamino)-1H-indol-1-yl)-2-oxoethyl)-N-(5-(3,4-dichlorophenyl)-1,3,4-thiadiazol-2-yl)-4-fluoropyrrolidine-2-carboxamide] was run?
Answer: > 10000 nM

Question: For `CC(=O)c1cn(CC(=O)N2C[C@H](F)C[C@H]2C(=O)Nc2cncc(Cl)c2)c2ccc(Nc3cncnc3)cc12` [Compound 22, (2S,4R)-1-(2-(3-acetyl-5-(pyrimidin-5-ylamino)-1H-indol-1-yl)acetyl)-N-(5-chloropyridin-3-yl)-4-fluoropyrrolidine-2-carboxamide], which IC50 is on record?
Answer: < 1000 nM

Question: `NC(=O)c1nn(CC(=O)N2C[C@H](F)C[C@H]2C(=O)Nc2cccc(Cl)n2)c2ccc(Nc3cccnn3)cc12` [Compound 11, 1-(2-((2S,4R)-2-(6-chloropyridin-2-ylcarbamoyl)-4-fluoropyrrolidin-1-yl)-2-oxoethyl)-5-(pyridazin-3-ylamino)-1H-indazole-3-carboxamide] was tested. Which IC50 did it give?
Answer: < 1000 nM

Question: How did the IC50 turn out when `CC(=O)c1cn(CC(=O)N2C[C@H](F)C[C@H]2C(=O)Nc2cc(C3CC3C)no2)c2ccc(Nc3cncnc3)cc12` (stereo partly drawn) [Compound 65, (2S,4R)-1-(2-(3-acetyl-5-(pyrimidin-5-ylamino)-1H-indol-1-yl)acetyl)-4-fluoro-N-(3-(2-methylcyclopropyl)isoxazol-5-yl)pyrrolidine-2-carboxamide] was run?
Answer: < 1000 nM

Question: How did the IC50 turn out when `CC(=O)c1cn(CC(=O)N2C[C@H](F)C[C@H]2C(=O)Nc2ccc3[nH]c(C)c(C)c3c2)c2ccc(Nc3cncnc3)cc12` [Compound 38, (2S,4R)-1-(2-(3-acetyl-5-(pyrimidin-5-ylamino)-1H-indol-1-yl)acetyl)-N-(2,3-dimethyl-1H-indol-5-yl)-4-fluoropyrrolidine-2-carboxamide] was run?
Answer: < 1000 nM

Question: With `CC(=O)c1cn(CC(=O)N2C[C@H](F)C[C@H]2C(=O)Nc2cc(C)nc3nc(C(F)(F)F)nn23)c2ccc(Nc3cncnc3)cc12` [Compound 41, (2S,4R)-1-(2-(3-acetyl-5-(pyrimidin-5-ylamino)-1H-indol-1-yl)acetyl)-4-fluoro-N-(5-methyl-2-(trifluoromethyl)-[1,2,4]triazolo[1,5-a]pyrimidin-7-yl)pyrrolidine-2-carboxamide] as the compound, how does the IC50 read?
Answer: > 10000 nM

Question: Which IC50 does the source give for `CC(=O)c1cn(CC(=O)N2C[C@H](F)C[C@H]2C(=O)Nc2noc3cc(C(F)(F)F)ccc23)c2ccc(Nc3cncnc3)cc12` [Compound 52, (2S,4R)-1-(2-(3-acetyl-5-(pyrimidin-5-ylamino)-1H-indol-1-yl)acetyl)-4-fluoro-N-(6-(trifluoromethyl)benzo[d]isoxazol-3-yl)pyrrolidine-2-carboxamide] here?
Answer: 1000 to 10000 nM

Question: With `CC(=O)c1cn(CC(=O)N2C[C@H](F)C[C@H]2C(=O)Nc2cc(O)ccn2)c2ccc(Nc3cncnc3)cc12` [Compound 72, (2S,4R)-1-(2-(3-acetyl-5-(pyrimidin-5-ylamino)-1H-indol-1-yl)acetyl)-4-fluoro-N-(4-hydroxypyridin-2-yl)pyrrolidine-2-carboxamide] as the compound, how does the IC50 read?
Answer: < 1000 nM

Question: Which IC50 does the source give for `CC(=O)c1cn(CC(=O)N2C[C@H](F)C[C@H]2C(=O)NC2CCN(c3ccn(C)n3)C2=O)c2ccc(Nc3cncnc3)cc12` (stereo partly drawn) [Compound 64, (2S,4R)-1-(2-(3-acetyl-5-(pyrimidin-5-ylamino)-1H-indol-1-yl)acetyl)-4-fluoro-N-(1-(1-methyl-1H-pyrazol-3-yl)-2-oxopyrrolidin-3-yl)pyrrolidine-2-carboxamide] here?
Answer: < 1000 nM

Question: `CC(=O)c1cn(CC(=O)N2C[C@H](F)C[C@H]2C(=O)Nc2nc(-c3ccc4c(c3)CCCC4)cs2)c2ccc(Nc3cncnc3)cc12` [Compound 50, (2S,4R)-1-(2-(3-acetyl-5-(pyrimidin-5-ylamino)-1H-indol-1-yl)acetyl)-4-fluoro-N-(4-(5,6,7,8-tetrahy-dronaphthalen-2-yl)thiazol-2-yl)pyrrolidine-2-carboxamide] was tested. Which IC50 did it give?
Answer: > 10000 nM

Question: Which IC50 does the source give for `CCN1Cc2ccc(NC(=O)[C@@H]3C[C@@H](F)CN3C(=O)Cn3cc(C(C)=O)c4cc(Nc5cncnc5)ccc43)cc2C1=O` [Compound 23, (2S,4R)-1-(2-(3-acetyl-5-(pyrimidin-5-ylamino)-1H-indol-1-yl)acetyl)-N-(2-ethyl-3-oxoisoindolin-5-yl)-4-fluoropyrrolidine-2-carboxamide] here?
Answer: < 1000 nM

Question: For `CC(=O)c1cn(CC(=O)N2C[C@H](F)C[C@H]2C(=O)Nc2cccc(-c3ccccc3Cl)c2F)c2ccc(Nc3cncnc3)cc12` [Compound 3, (2S,4R)-1-(2-(3-acetyl-5-(pyrimidin-5-ylamino)-1H-indol-1-yl)acetyl)-N-(2′-chloro-2-fluorobiphenyl-3-yl)-4-fluoropyrrolidine-2-carboxamide], which IC50 is on record?
Answer: < 1000 nM

Question: With `CC(=O)c1cn(CC(=O)N2C[C@H](F)C[C@H]2C(=O)Nc2cccc(-c3ccccc3Cl)c2F)c2ccc(N(COC(=O)C(C)(C)C)c3cncnc3)cc12` [Compound 15, ((3-acetyl-1-(2-((2S,4R)-2-(2′-chloro-2-fluorobiphenyl-3-ylcarbamoyl)-4-fluoropyrrolidin-1-yl)-2-oxoethyl)-1H-indol-5-yl)(pyrimidin-5-yl)amino)methyl pivalate] as the compound, how does the IC50 read?
Answer: 1000 to 10000 nM

Question: With `CC(=O)c1cn(CC(=O)N2C[C@H](F)C[C@H]2C(=O)Nc2cccc(Cl)n2)c2ccc(Nc3cncnc3)cc12` [Compound 6, (2S,4R)-1-(2-(3-acetyl-5-(pyrimidin-5-ylamino)-1H-indol-1-yl)acetyl)-N-(6-chloropyridin-2-yl)-4-fluoropyrrolidine-2-carboxamide] as the compound, how does the IC50 read?
Answer: < 1000 nM

Question: `CC(=O)c1cn(CC(=O)N2C[C@H](F)C[C@H]2C(=O)NC2CCCc3nc(-c4ccc(F)cc4)sc32)c2ccc(Nc3cncnc3)cc12` (stereo partly drawn) [Compound 28, (2S,4R)-1-(2-(3-acetyl-5-(pyrimidin-5-ylamino)-1H-indol-1-yl)acetyl)-4-fluoro-N-(2-(4-fluorophenyl)-4,5,6,7-tetrahydrobenzo[d]thiazol-7-yl)pyrrolidine-2-carboxamide] was tested. Which IC50 did it give?
Answer: > 10000 nM

Question: `CC(=O)c1cn(CC(=O)N2C[C@H](F)C[C@H]2C(=O)NCc2cccc(Cl)c2)c2ccc(Nc3cncnc3)cc12` [Compound 19, (2S,4R)-1-(2-(3-acetyl-5-(pyrimidin-5-ylamino)-1H-indol-1-yl)acetyl)-N-(3-chlorobenzyl)-4-fluoropyrrolidine-2-carboxamide] was tested. Which IC50 did it give?
Answer: < 1000 nM

Question: How did the IC50 turn out when `CC(=O)c1cn(CC(=O)N2C[C@H](F)C[C@H]2C(=O)Nc2cc3c(cc2F)OC(F)(F)O3)c2ccc(Nc3cncnc3)cc12` [Compound 35, (2S,4R)-1-(2-(3-acetyl-5-(pyrimidin-5-ylamino)-1H-indol-1-yl)acetyl)-4-fluoro-N-(2,2,6-trifluorobenzo[d] [1,3]dioxol-5-yl)pyrrolidine-2-carboxamide] was run?
Answer: < 1000 nM

Question: `CC(=O)c1cn(CC(=O)N2C[C@H](F)C[C@H]2C(=O)NC2CCCN(c3ccccc3Cl)C2=O)c2ccc(Nc3cncnc3)cc12` (stereo partly drawn) [Compound 58, (2S,4R)-1-(2-(3-acetyl-5-(pyrimidin-5-ylamino)-1H-indol-1-yl)acetyl)-N-(1-(2-chlorophenyl)-2-oxopiperidin-3-yl)-4-fluoropyrrolidine-2-carboxamide] was tested. Which IC50 did it give?
Answer: < 1000 nM

Question: `CC(=O)c1cn(CC(=O)N2C[C@H](F)C[C@H]2C(=O)Nc2cncc(Br)c2)c2ccc(Nc3cncnc3)cc12` [Compound 21, (2S,4R)-1-(2-(3-acetyl-5-(pyrimidin-5-ylamino)-1H-indol-1-yl)acetyl)-N-(5-bromopyridin-3-yl)-4-fluoropyrrolidine-2-carboxamide] was tested. Which IC50 did it give?
Answer: < 1000 nM

Question: How did the IC50 turn out when `CC(=O)c1cn(CC(=O)N2C[C@H](F)C[C@H]2C(=O)Nc2cncc(Br)n2)c2ccc(Nc3cncnc3)cc12` [Compound 47, (2S,4R)-1-(2-(3-acetyl-5-(pyrimidin-5-ylamino)-1H-indol-1-yl)acetyl)-N-(6-bromopyrazin-2-yl)-4-fluoropyrrolidine-2-carboxamide] was run?
Answer: < 1000 nM

Same assay, conditions: Table 3; Factor D purified from human serum, 80 nM, substrate Z-L-Lys-SBzl; read-out: IC50 (Stars)

Question: How did the IC50 turn out when `Cc1cccc(NC(=O)[C@@H]2[C@@H]3CCC(C3)N2C(=O)Cn2cc(C(N)=O)c3cc(Nc4ccc(Cl)nn4)ccc32)n1` [Compound 162, 5-((6-chloropyridazin-3-yl)amino)-1-(2-((3S,4R)-3-((6-methylpyridin-2-yl)carbamoyl)-2-azabicyclo[2.2.1]heptan-2-yl)-2-oxoethyl)-1H-indole-3-carboxamide] was run?
Answer: < 1000 nM

Question: `CC(=O)c1cn(CC(=O)N2C[C@H](F)C[C@H]2C(=O)NCCCc2ccccc2)c2ccc(Nc3cccnc3)cc12` [Compound 150, (2S,4R)-1-(2-(3-acetyl-5-(pyridin-3-ylamino)-1H-indol-1-yl)acetyl)-4-fluoro-N-(3-phenylpropyl) pyrrolidine-2-carboxamide] was tested. Which IC50 did it give?
Answer: < 1000 nM

Question: With `CC(=O)c1cn(CC(=O)N2C[C@H](F)C[C@H]2C(=O)NCCCc2ccccc2)c2ccc(Nc3cncnc3)cc12` [Compound 155, (2S,4R)-1-(2-(3-acetyl-5-(pyrimidin-5-ylamino)-1H-indol-1-yl)acetyl)-4-fluoro-N-(3-phenylpropyl) pyrrolidine-2-carboxamide] as the compound, how does the IC50 read?
Answer: < 1000 nM

Question: With `CC(=O)c1cn(CC(=O)N2C[C@H](F)C[C@H]2C(=O)NCCCCc2ccccc2)c2ccc(Nc3cccnc3)cc12` [Compound 152, (2S,4R)-1-(2-(3-acetyl-5-(pyridin-3-ylamino)-1H-indol-1-yl)acetyl)-4-fluoro-N-(4-phenylbutyl) pyrrolidine-2-carboxamide] as the compound, how does the IC50 read?
Answer: < 1000 nM
